These compounds were tested against T1, human GPR120 (Homo sapiens, UniProt Q5NUL3) (assay: GPR120 pERK AlphaScreen SureFire assay (human)). Conditions: CHO cells stably transfected with short form of human GPR120.
T1 construct: expressed in transfected cells; host or cells: CHOA12 cells
T1 sequence (Q5NUL3 1-361): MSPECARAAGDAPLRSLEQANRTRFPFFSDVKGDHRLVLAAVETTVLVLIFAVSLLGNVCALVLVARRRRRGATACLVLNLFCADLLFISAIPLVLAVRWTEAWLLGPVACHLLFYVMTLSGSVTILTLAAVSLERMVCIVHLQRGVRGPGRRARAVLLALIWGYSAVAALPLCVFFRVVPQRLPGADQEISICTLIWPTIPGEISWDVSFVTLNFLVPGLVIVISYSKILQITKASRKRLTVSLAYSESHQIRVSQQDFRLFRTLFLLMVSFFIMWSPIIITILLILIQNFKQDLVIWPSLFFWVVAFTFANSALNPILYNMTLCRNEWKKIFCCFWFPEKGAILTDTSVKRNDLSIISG
Type: cell-based
Text: GPR120 activity was monitored by measuring phosphorylation of ERK (pERK), since G protein receptors are known to activate the ERK signaling cascade either directly and/or through recruitment of arrestin that serves as a scaffold for downstream signaling events.
GPR120 pERK AlphaScreen SureFire Assay
The human and mouse GPR120-mediated intracellular phosphorylated ERK assays were established using CHOA12 cells stably transfected with the short form of human or mouse GPR120 receptor. Cells were cultured in growth medium consisting of F-12 media (Invitrogen Cat. #11765) with 5% Charcoal/Dextran FBS (Invitrogen Cat. #12676-029), 500 μg/mL GENETICIN® (Life Technologies Cat. #10131-027) and 250 μg/mL Zeocin (Invitrogen Cat. #R250-01). Cells were cryo preserved at a concentration of 2×10^7 cells/mL, in 90% Charcoal/Dextran FBS and 10% DMSO, and frozen in liquid nitrogen at a low passage number.
For the pERK assay, 2×10^7 cells/mL cryopreserved human and mouse cells were thawed rapidly in a 37° C. water bath and added to a T-225 flask containing 50 mL growth medium. The flasks were placed in a tissue culture incubator overnight (37° C., 5% CO2). The next day, cells were harvested with trypsin (Gibco Cat. #25300-054), resuspended in serum-containing growth medium and counted using a Cellometer and volume adjusted to a concentration of 0.6×10^6cells/mL. Cells were plated into 384-well clear bottom tissue culture plates (BD Cat. #353962) at 50 μL/well, for a density of 30,000 cells/well using a MULTIDROP® and incubated for 16-18 hours (overnight) at 37° C. with 5% CO2. The next day, cells were serum starved in 30 μL of F-12 media without any serum or antibiotics for 2 hours at 37° C.
Test compounds were 3-fold, 11-point serially diluted in DMSO in a REMP assay plate (Matrix Cat. #4307) by Tecan and 5 μL was transferred into an ECHO source plate (LABCYTE® Cat. #LC-0200). Cells were then stimulated with 50 nL of compound dilutions using ECHO liquid handler for 7 minutes at 37° C. Compounds ranged from final assay concentrations of 33.33 μM to 0.56 nM.
The media was then dumped and cells lysed with 20 μL of 1× Lysis buffer from the AlphaScreen SureFire Phospho-ERK 1/2 Kit (Perkin Elmer Cat. #6760617M). The lysis buffer was diluted 5-fold with water before use. The plate was agitated on a shaker for 10 minutes after which 2 μL was transferred into a 384-well white proxiplate (Perkin Elmer Cat. #6008289). The SureFire assay reagent mix was prepared by mixing 60 parts Reaction Buffer, 10 parts Activation Buffer, 1 part Donor Beads, 1 part Acceptor Beads (Perkin Elmer Cat. #TGRES10K). 3.5 μL/well of this reagent mix was manually added to the proxiplate with a multichannel pipettor. Plates were spun down at 1000 rpm for 2 minutes, followed by light-protected incubation at room temperature for 2 hours. The plates were read on the Alpha-technology compatible Envision multilabel plate reader using AlphaScreen protocol according to manufacturer's specifications. The agonist effect of compounds was expressed as 100×(average sample−average blank)/(average total−average blank) where sample is the luminescence activity in the presence of test compound, blank is equal to the luminescence activity in the presence of DMSO control and the total is signal induced by 50 μM linolenic acid as reference compound. Activation data for the test compound over a range of concentrations was plotted as percentage activation of the test compound (100%=maximum response). After correcting for background, EC50 values were determined The EC50 is defined as the concentration of test compound which produces 50% of the maximal response and was quantified using the 4 parameter logistic equation to fit the data.
The human and mouse GPR120-mediated intracellular phosphorylated ERK assays were also established using CHO-K1 cells stably transfected with the short form of human or mouse GPR120 receptor. […]
With `O=C(O)C1CC1CCC12CCC(c3cc(F)cc(Oc4ccccc4)c3)(CC1)OC2` (single isomer, unassigned) [Example 63, 2-(2-(1-(3-Fluoro-5-phenoxyphenyl)-2-oxabicyclo[2.2.2]octan-4-yl)ethyl)cyclopropanecarboxylic acid] the EC50 was 370 nM.
`CCc1cccc(Oc2cccc(C34CCC(CCOCC(=O)O)(CC3)CO4)c2)c1` [Example 119, 2-(2-(1-(3-(3-Ethylphenoxy)phenyl)-2-oxabicyclo[2.2.2]octan-4-yl)ethoxy)acetic acid] was tested, and the EC50 was 1600 nM.
With `CC(C)COc1cc(F)cc(C23CCC(CCOCC(=O)O)(CC2)CO3)c1` [Example 36, 2-(2-(1-(3-Fluoro-5-isobutoxyphenyl)-2-oxabicyclo[2.2.2]octan-4-yl)ethoxy)acetic acid] the EC50 was 720 nM.
With `Cc1ccc(Oc2cccc(C34CCC(CCOCC(=O)O)(CC3)CO4)c2)cc1` [Example 41, 2-(2-(1-(3-(p-tolyloxy)phenyl)-2-oxabicyclo [2.2.2]octan-4-yl)ethoxy)acetic acid] the EC50 was 200 nM.
Compound `O=C(O)C/C=C/CC12CCC(c3cccc(Oc4ccccc4)c3)(CC1)OC2` [Example 34, (E)-5-(1-(3-Phenoxyphenyl)-2-oxabicyclo[2.2.2]octan-4-yl)pent-3-enoic acid] has an EC50 of 70 nM.
Work on `CCNC(=O)[C@@H]1C[C@H]1CCC12CCC(c3cccc(Oc4ccccc4)c3)(CC1)OC2` (single isomer, unassigned) [Example 69, N-Ethyl-2-(2-(1-(3-phenoxyphenyl)-2-oxabicyclo[2.2.2]octan-4-yl)ethyl) cyclopropanecarboxamide] yielded an EC50 of 4230 nM.
In the case of `O=C(O)COCCC12CCC(c3cccc(Oc4ccccc4)c3)(CC1)CO2` [Example 31, 2-(2-(4-(3-Phenoxyphenyl)-2-oxabicyclo[2.2.2]octan-1-yl)ethoxy)acetic acid], the EC50 is reported as 280 nM.
`O=C(O)CCC12CCC(c3cccc(Oc4ccccc4)c3)(CC1)OC2` [Example 1, 3-(1-(3-Phenoxyphenyl)-2-oxabicyclo[2.2.2]octan-4-yl)propanoic acid] was tested, and the EC50 was 2310 nM.
With `OC[C@H](O)CCCC12CCC(c3cccc(Oc4ccccc4)c3)(CC1)OC2` (single isomer, unassigned) [Example 60, R-5-(1-(3-phenoxyphenyl)-2-oxabicyclo[2.2.2]octan-4-yl)pentane-1,2-diol] the EC50 was 570 nM.
Work on `COc1cc(Oc2cc(F)cc(C34CCC(CCOCC(=O)O)(CC3)CO4)c2)ccc1F` [Example 86, 2-(2-(1-(3-fluoro-5-(4-fluoro-3-methoxyphenoxy)phenyl)-2-oxabicyclo [2.2.2]octan-4-yl)ethoxy) acetic acid] yielded an EC50 of 850 nM.
In the case of `O=C(O)CC1CC1CC12CCC(c3cccc(Oc4ccccc4)c3)(CC1)OC2` (stereo not drawn) [Example 16, 2-(2-((1-(3-Phenoxyphenyl)-2-oxabicyclo[2.2.2]octan-4-yl)methyl)cyclopropyl)acetic acid (trans)], the EC50 is reported as 160 nM.
`O=C(O)COCCC12CCC(c3cccc(OC4CCCCC4)c3)(CC1)CO2` [Example 111, 2-(2-(4-(3-(Cyclohexyloxy)phenyl)-2-oxabicyclo[2.2.2]octan-1-yl)ethoxy) acetic acid] was tested, and the EC50 was 640 nM.
`O=C(O)COCCCC12CCC(c3cccc(Oc4ccccc4)c3)(CC1)OC2` [Example 12, 2-(3-(1-(3-Phenoxyphenyl)-2-oxabicyclo[2.2.2]octan-4-yl)propoxy)acetic acid] gave an EC50 of 980 nM.
In the case of `CC(C)=COc1cccc(C23CCC(CCOCC(=O)O)(CC2)CO3)c1` [Example 20, 2-(2-(1-(3-(2-Methylprop-1-enyloxy)phenyl)-2-oxabicyclo[2.2.2]octan-4-yl)ethoxy)acetic acid], the EC50 is reported as 650 nM.
In the case of `N#Cc1cccc(Oc2cccc(C34CCC(CCOCC(=O)O)(CC3)CO4)c2)c1` [Example 46, 2-(2-(1-(3-(3-Cyanophenoxy)phenyl)-2-oxabicyclo[2.2.2]octan-4-yl)ethoxy)acetic acid], the EC50 is reported as 2570 nM.
`O=C(O)COCCC12CCC(c3cccc(Cc4ccccc4)c3)(CC1)OC2` [Example 50, 2-(2-(1-(3-Benzylphenyl)-2-oxabicyclo[2.2.2]octan-4-yl)ethoxy)acetic acid] was tested, and the EC50 was 1360 nM.
In the case of `COc1cc(Oc2ccc(F)c(F)c2)cc(C23CCC(CCOCC(=O)O)(CC2)CO3)c1` [Example 91, 2-(2-(1-(3-(3,4-difluorophenoxy)-5-methoxyphenyl)-2-oxabicyclo[2.2.2]octan-4-yl)ethoxy)acetic acid], the EC50 is reported as 630 nM.
In the case of `O=C(O)C1CC1COC12CCC(c3cccc(Oc4ccccc4)c3)(CC1)OC2` (stereo not shown) [Example 96, 2-(((1-(3-Phenoxyphenyl)-2-oxabicyclo[2.2.2]octan-4-yl)oxy)methyl) cyclopropanecarboxylic acid], the EC50 is reported as 1680 nM.
With `O=C(O)[C@@H]1C[C@H]1COCC12CCC(c3cccc(Oc4ccccc4)c3)(CC1)OC2` (single isomer, unassigned) [Example 98] the EC50 was 1020 nM.
Compound `O=C(O)COC(=O)NCC12CCC(c3cccc(Oc4ccccc4)c3)(CC1)OC2` [Example 28, 2-((1-(3-Phenoxyphenyl)-2-oxabicyclo[2.2.2]octan-4-yl)methylcarbamoyloxy)acetic acid] has an EC50 of 1980 nM.
`O=C(O)CCCCC12CCC(c3cccc(Oc4ccccc4)c3)(CC1)OC2` [Example 2] was tested, and the EC50 was 60 nM.
`O=C(O)/C=C\CCC12CCC(c3cccc(Oc4ccccc4)c3)(CC1)OC2` [Example 35, (Z)-5-(1-(3-Phenoxyphenyl)-2-oxabicyclo[2.2.2]octan-4-yl)pent-2-enoic acid] showed an EC50 of 660 nM.
For `CCc1cccc(Oc2cccc(C34CCC(CC[C@@H]5C[C@H]5C(=O)O)(CC3)CO4)c2)c1` [Example 118, (1R,2R)-2-(2-(1-(3-(3-Ethylphenoxy)phenyl)-2-oxabicyclo[2.2.2]octan-4-yl)ethyl)cyclo-propane carboxylic acid], the EC50 was 1890 nM.
`O=C(O)COCCC12CCC(c3cccc(Oc4ccc(F)cc4)c3)(CC1)OC2` [Example 39, 2-(2-(1-(3-(4-fluorophenoxy)phenyl)-2-oxabicyclo[2.2.2]octan-4-yl)ethoxy) acetic acid] showed an EC50 of 200 nM.
Work on `COc1cc(Oc2ccc(C)c(F)c2)cc(C23CCC(CCOCC(=O)O)(CC2)CO3)c1` [Example 93, 2-(2-(1-(3-(3-fluoro-4-methylphenoxy)-5-methoxyphenyl)-2-oxabicyclo[2.2.2]octan-4-yl)ethoxy)acetic acid] yielded an EC50 of 520 nM.
For `O=C(O)C1CC1CCC12CCC(c3cccc(Oc4ccccc4)c3)(CC1)OC2` (racemic) [Example 13, trans-2-(2-(1-(3-Phenoxyphenyl)-2-oxabicyclo[2.2.2]octan-4-yl)ethyl)cyclopropanecarboxylic acid], the EC50 was 350 nM.
`Cc1cc(Oc2cc(F)cc(C34CCC(CCOCC(=O)O)(CC3)CO4)c2)ccc1F` [Example 81, 2-(2-(1-(3-fluoro-5-(4-fluoro-3-methylphenoxy)phenyl)-2-oxabicyclo [2.2.2]octan-4-yl)ethoxy) acetic acid] was tested, and the EC50 was 520 nM.
With `O=C(O)[C@@H]1C[C@@H]1CCC12CCC(c3cccc(Oc4ccccc4)c3)(CC1)OC2` (racemic) [Example 32, Cis-2-(2-(1-(3-phenoxyphenyl)-2-oxabicyclo[2.2.2]octan-4-yl)ethyl)cyclopropanecarboxylic acid] the EC50 was 580 nM.
